One test has as its target NAMPT (Homo sapiens (Human), UniProt P43490). The test can be described thus: Biochemical Inhibition Assay (NAMPT enzymatic reaction, NMN quantified by mass spectrometry). As to conditions: 33 nM recombinant His-tagged NAMPT, 1 μM NAM, 30 min at rt. As to the method:
Assay 1: Biochemical Inhibition Assay
NAMPT protein purification. Recombinant His-tagged NAMPT was produced in E. coli cells, purified over a Ni column, and further purified over a size-exclusion column by XTAL Biostructures.
The NAMPT Enzymatic Reaction. The NAMPT enzymatic reactions were carried out in Buffer A (50 mM Hepes pH 7.5, 50 mM NaCl, 5 mM MgCl2, and 1 mM THP) in 96-well V-bottom plates. The compound titrations were performed in a separate dilution plate by serially diluting the compounds in DMSO to make a 100× stock. […] The compound and enzyme mixture was incubated for 15 min at rt, then 10 μL of 10× substrate and co-factors in Buffer A were added to the test well to make a final concentration of 1 μM NAM, […] 5-Phospho-D-ribose 1-diphosphate (PRPP), and 2.5 mM Adenosine 5′-triphosphate (ATP). The reaction was allowed to proceed for 30 min at rt, then was quenched with the addition of 11 μL of a solution of formic acid and L-Cystathionine to make a final concentration of 1% formic acid and 10 μM L-Cystathionine. Background and signal strength was determined by addition (or non-addition) of a serial dilution of NMN to a pre-quenched enzyme and cofactor mix.
Quantification of NMN. A mass spectrometry-based assay was used to measure the NAMPT reaction product, β-nicotinamide mononucleotide (NMN), and the internal control (L-Cystathionine). NMN and L-Cystathionine were detected using the services of Biocius Lifesciences with the RapidFire system. In short, the NMN and L-Cystathionine were bound to a graphitic carbon cartridge in 0.1% formic acid, eluted in 30% acetonitrile buffer, and injected into a Sciex 4000 mass spectrometer. The components of the sample were ionized with electrospray ionization and the positive ions were detected. […] The fragments are quantified and the analyzed by the following method.
Determination of IC50 Values. First, the NMN signal was normalized to the L-Cystathionine signal by dividing the NMN signal by the L-Cystathionine signal for each well. The signal from the background wells were averaged and subtracted from the test plates.

The next test relates to A2780 cells. Description: In-Vitro Cell Proliferation Assay (SRB).
Where [1] appears, read: Homo sapiens, A2780, 72 h, read-out: Cell Proliferation (IC50).
[2] abbreviates: Homo sapiens, A2780, 72 h, read-out: Cell Proliferation (IC50), A2780 cells, 72 h, sulforhodamine B.
Where [3] appears, read: read-out: Cell Proliferation (IC50), A2780 cells, 72 h, sulforhodamine B.

Where two headings read alike, the source gives them in different places.

Chain of NAMPT (P43490 whole entry): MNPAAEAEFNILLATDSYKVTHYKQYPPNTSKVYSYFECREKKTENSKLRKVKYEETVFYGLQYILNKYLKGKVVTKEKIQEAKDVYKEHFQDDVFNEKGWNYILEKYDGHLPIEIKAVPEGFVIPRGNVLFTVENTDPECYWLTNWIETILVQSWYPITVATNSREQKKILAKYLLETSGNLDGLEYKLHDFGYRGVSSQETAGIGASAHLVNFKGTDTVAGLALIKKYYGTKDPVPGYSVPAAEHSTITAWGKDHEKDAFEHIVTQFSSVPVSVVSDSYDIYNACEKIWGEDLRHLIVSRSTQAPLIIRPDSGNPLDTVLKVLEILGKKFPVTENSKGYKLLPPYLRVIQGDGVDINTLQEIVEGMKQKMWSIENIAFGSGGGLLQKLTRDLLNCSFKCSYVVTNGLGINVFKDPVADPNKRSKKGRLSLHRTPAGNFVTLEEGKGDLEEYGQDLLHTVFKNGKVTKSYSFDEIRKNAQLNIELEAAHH
Method for A2780 cells: Assay 2: In-Vitro Cell Proliferation Assay
Assay Method. […] The compounds were then further diluted to 10 OX final concentration in culture media, whereupon 20 μL of each dilution was added to the plated cells with controls (e.g. DMSO and blank) to make a final volume of 200 μL. The final DMSO concentration in each well was 0.1%. The plates were then incubated for 72 h at 37° C. in a 5% CO2 incubator. The number of viable cells was then assessed using sulforhodamine B (SRB) assay. Cells were fixed at 4° C. for 1 h with the addition of 50 μL 30% trichloroacetic acid (TCA) to make a final concentration of 6% TCA. The plates were washed four times with H2O and allowed to dry for at least 1 h, whereupon 100 μL of a 4% SRB in 1% acetic acid solution was added to each well and incubated at rt for at least 30 min. The plates were then washed three times with 1% acetic acid, dried, and treated with 100 μL of 10 mM Tris-Base solution. The plates were then read in a microplate reader at an absorbance of 570 nm. Background was generated on a separate plate with media only.
Determination of IC50 Values. First, the signals from the background plate were averaged, then the background was subtracted from the test plates.
The specificity of the compounds were determined via cell viability assay in the presence of the compound and either NAM or NMN Percent inhibitions were determined using the method given above.

`O=C(NCc1ccc(S(=O)(=O)c2cccc(N3CCOCC3)c2)cn1)c1cnc2[nH]ncc2c1` [Example 157, N-[[5-(3-morpholinophenyl)sulfonyl-2-pyridyl]methyl]-1H-pyrazolo[3,4-b]pyridine-5-carboxamide]: the IC50 was 290 nM on NAMPT and 217 nM in the test with A2780 cells (setting [1]).
On to `O=C(NCc1ncc(S(=O)(=O)c2ccccc2)cn1)c1ccc2nccn2c1` [Example 8, Imidazo[1,2-a]pyridine-6-carboxylic acid (5-benzenesulfonyl-pyrimidin-2-ylmethyl)-amide], for which the IC50 was 352 nM on NAMPT and 459 nM in the test on A2780 cells (setting [2]).
With `O=C(NCc1ccc(S(=O)(=O)N2CCC(N3CCCC3)CC2)cn1)N1Cc2ccncc2C1` [Example 148, N-[[5-[(4-pyrrolidin-1-yl-1-piperidyl)sulfonyl]-2-pyridyl]methyl]-1,3-dihydropyrrolo[3,4-c]pyridine-2-carboxamide], the IC50 on NAMPT came out at 75.7 nM; with A2780 cells (setting [1]) it was 85.2 nM.
The corresponding values for `O=C(NCc1ncc(S(=O)(=O)c2cccc(C(F)(F)F)c2)cn1)c1ccc2nccn2c1` [Example 77, Imidazo[1,2-a]pyridine-6-carboxylic acid [5-(3-trifluoromethyl-benzenesulfonyl)-pyrimidin-2-ylmethyl]-amide] are 17.6 nM and 16.5 nM.
The corresponding values for `O=C(NCc1ccc(S(=O)(=O)c2cc(F)cc(F)c2)cn1)c1ccc2nccn2c1` [Example 4, Imidazo[1,2-a]pyridine-6-carboxylic acid [5-(3,5-difluoro-benzenesulfonyl)-pyridin-2-ylmethyl]-amide] are 7.1 nM and 9.2 nM.
For the molecule `O=C(NCc1ccc([S+]([O-])c2cc(F)cc(F)c2)cn1)N1Cc2ccncc2C1` (single isomer, unassigned; enantiomer 2) [Example 160, N-[[5-(3,5-difluorophenyl)sulfinyl-2-pyridyl]methyl]-1,3-dihydropyrrolo[3,4-c]pyridine-2-carboxamide (enantiomer 2)], the IC50 at NAMPT stood at 20.1 nM; in the test with A2780 cells (setting [3]), 19.6 nM.
Take `O=C(NCc1ccc(S(=O)(=O)c2cncc(Cl)c2)cn1)c1cc2ccncc2o1` [Example 169, N-[[5-[(5-chloro-3-pyridyl)sulfonyl]-2-pyridyl]methyl]furo[2,3-c]pyridine-2-carboxamide]: the IC50 at NAMPT turned out to be 66.4 nM; in the test with A2780 cells (setting [1]), 26.9 nM.
The corresponding values for `Nc1ccc(S(=O)(=O)c2ccc(CNC(=O)c3cc4ccncc4o3)nc2)cn1` [Example 110, N-[[5-[(6-amino-3-pyridyl)sulfonyl]-2-pyridyl]methyl]furo[2,3-c]pyridine-2-carboxamide] are 13.3 nM and 25.9 nM.
`O=C(NCc1ccc([S+]([O-])c2cccc(OC(F)(F)F)c2)cn1)c1cc2ccncc2o1` (racemic) [Example 90, Furo[2,3-c]pyridine-2-carboxylic acid [5-(3-trifluoromethoxy-benzenesulfinyl)-pyridin-2-ylmethyl]-amide (racemic)]: the results for the IC50 at NAMPT and in the test with A2780 cells (setting [1]) were 16.2 nM and 25.5 nM, respectively.
With `Cc1ccc(S(=O)(=O)c2ccc(CNC(=O)c3ccc4nccn4c3)nc2)cn1` [Example 92, Imidazo[1,2-a]pyridine-6-carboxylic acid [5-(6-methyl-pyridine-3-sulfonyl)-pyridin-2-ylmethyl]-amide], the IC50 on NAMPT was 33.9 nM; in the test with A2780 cells (setting [2]), 56.8 nM.
In the case of `O=C(NCc1ccc(S(=O)(=O)c2cccc(C(F)(F)F)c2)cn1)c1cc2cnccc2[nH]1` [Example 17, 1H-Pyrrolo[3,2-c]pyridine-2-carboxylic acid [5-(3-trifluoromethyl-benzenesulfonyl)-pyridin-2-ylmethyl]-amide], the IC50 on NAMPT is 19.1 nM; with A2780 cells (setting [1]) it was 9.1 nM.
Regarding `N#Cc1cncc(S(=O)(=O)c2ccc(CNC(=O)c3cc4ccncc4o3)nc2)c1` [Example 174, N-[[5-[(5-cyano-3-pyridyl)sulfonyl]-2-pyridyl]methyl]furo[2,3-c]pyridine-2-carboxamide], the IC50 at NAMPT was 217 nM; in the test with A2780 cells (setting [1]) it was 116 nM.
Regarding `O=C(NCc1ccc(S(=O)(=O)C2CCN(C3CCOC3)CC2)cn1)N1Cc2ccncc2C1` (centres unmarked) [Example 129, N-[[5-[(1-tetrahydrofuran-3-yl-4-piperidyl)sulfonyl]-2-pyridyl]methyl]-1,3-dihydropyrrolo[3,4-c]pyridine-2-carboxamide], the IC50 was determined as 32.7 nM at NAMPT and 36.3 nM in the test with A2780 cells (setting [1]).
In the case of `O=C(NCc1ccc(S(=O)(=O)c2cncc(C(F)(F)F)c2)cn1)c1ccc2nccn2c1` [Example 168, N-[[5-[[5-(trifluoromethyl)-3-pyridyl]sulfonyl]-2-pyridyl]methyl]imidazo[1,2-a]pyridine-6-carboxamide], the IC50 at NAMPT was found to be 60.8 nM; in the test on A2780 cells (setting [1]) it was 14.9 nM.
In the case of `O=C(NCc1ncc(S(=O)(=O)c2ccccc2)cn1)c1cnc2[nH]ncc2c1` [Example 6, 1H-Pyrazolo[3,4-b]pyridine-5-carboxylic acid (5-benzenesulfonyl-pyrimidin-2-ylmethyl)-amide], the IC50 at NAMPT came to 108 nM; in the test with A2780 cells (setting [2]) it was 2000 nM.
As for `COc1cccc(S(=O)(=O)c2ccc(CNC(=O)c3cc4ccncc4o3)nc2)c1` [Example 32], the results for the IC50 on NAMPT and in the test on A2780 cells (setting [1]) were 6.1 nM and 9.1 nM, respectively.
Regarding `O=C(NCc1ccc(S(=O)(=O)c2ccccc2)cn1)c1cc2ccncc2s1` [Example 186, N-[[5-(benzenesulfonyl)-2-pyridyl]methyl]thieno[2,3-c]pyridine-2-carboxamide], the IC50 on NAMPT is 125 nM; in the test with A2780 cells (setting [2]), 918 nM.
`O=C(NCc1ccc(S(=O)(=O)C2CCN(C3CCOCC3)CC2)cn1)c1ccc2nccn2c1` [Example 161, N-[[5-[(1-tetrahydropyran-4-yl-4-piperidyl)sulfonyl]-2-pyridyl]methyl]imidazo[1,2-a]pyridine-6-carboxamide]: the results for the IC50 at NAMPT and in the test on A2780 cells (setting [1]) were 253 nM and 52.8 nM, respectively.
Turning to `COc1ccc(S(=O)(=O)c2ccc(CNC(=O)c3cnc4[nH]ncc4c3)nc2)cc1OC` [Example 70, 1H-Pyrazolo[3,4-b]pyridine-5-carboxylic acid [5-(3,4-dimethoxy-benzenesulfonyl)-pyridin-2-ylmethyl]-amide], the IC50 on NAMPT came out at 48.5 nM; in the test on A2780 cells (setting [2]) it was 24.6 nM.
The corresponding values for `Nc1ncc2c(n1)CN(C(=O)NCc1ccc(S(=O)(=O)c3cc(F)cc(F)c3)cn1)C2` [Example 86, 2-Amino-5,7-dihydro-pyrrolo[3,4-d]pyrimidine-6-carboxylic acid [5-(3,5-difluoro-benzenesulfonyl)-pyridin-2-ylmethyl]-amide] are 354 nM and 2000 nM.
On to `COc1ccc(S(=O)(=O)c2ccc(CNC(=O)c3ccc4nccn4c3)nc2)cc1OC` [Example 65, Imidazo[1,2-a]pyridine-6-carboxylic acid [5-(3,4-dimethoxy-benzenesulfonyl)-pyridin-2-ylmethyl]-amide], for which the IC50 at NAMPT is 30.7 nM; in the test on A2780 cells (setting [1]), 7 nM.
The corresponding values for `CN(C)c1ncc(S(=O)(=O)c2ccc(CNC(=O)N3Cc4ccncc4C3)nc2)s1` [Example 98, 1,3-Dihydro-pyrrolo[3,4-c]pyridine-2-carboxylic acid [5-(2-dimethylamino-thiazole-5-sulfonyl)-pyridin-2-ylmethyl)-amide] are 6.6 nM and 4.97 nM.
As to `O=C(NCc1ccc(S(=O)(=O)N2CCN(C3COC3)CC2)cn1)c1cc2ccncc2o1` [Example 141, N-[[5-[4-(oxetan-3-yl)piperazin-1-yl]sulfonyl-2-pyridyl]methyl]furo[2,3-c]pyridine-2-carboxamide], the IC50 on NAMPT stood at 207 nM; in the test with A2780 cells (setting [1]), 71.7 nM.
Consider `O=C(NCc1ccc(S(=O)(=O)c2cccc(F)c2)cn1)N1Cc2ccncc2C1` [Example 100, 1,3-Dihydro-pyrrolo[3,4-c]pyridine-2-carboxylic acid [5-(3-fluoro-benzenesulfonyl)-pyridin-2-ylmethyl]-amide], for which the values for the IC50 on NAMPT and in the test with A2780 cells (setting [1]) were 11.1 nM and 76.6 nM, respectively.
Turning to `O=C(NCc1ccc([S+]([O-])c2cc(F)cc(F)c2)cn1)N1Cc2ccncc2C1` (single isomer, unassigned; enantiomer 1) [Example 159, N-[[5-(3,5-difluorophenyl)sulfinyl-2-pyridyl]methyl]-1,3-dihydropyrrolo[3,4-c]pyridine-2-carboxamide (enantiomer 1)], the IC50 was 635 nM on NAMPT and 2000 nM in the test on A2780 cells (setting [3]).

Values taken from patent publication US9458172B2, “Pyridinyl and pyrimidinyl sulfoxide and sulfone derivatives” (priority 2012, dated 2016).
